Test results: patent US9200046B2, “Reporter system for high throughput screening of compounds and uses thereof” (priority 2011, dated 2015)
“Also recorded” adds a separate entry of the source. Where two headings read alike, the source gives them in different places.

Legend:
[1] = test system: Neh2-luciferase fusion protein in SH-SY5Y cells; type: cell-based, human; conditions: for lag-period of reporter activation: time-course of Neh2-luc activation
Method: Cells were plated at the density of 25,000 cell per well using a WellMate multichannel dispenser from Matrix (Thermo Fisher Scientific) and grown overnight on DMEM/F12+GlutaMAX (100 μl per well). Then the inhibitor was added, and the plates were incubated for a fixed time interval; the medium was removed, cells lysed in 20 μL (out of which 4 μL were taken for protein measurement), then BrightGlo™ reagent (Promega) was added to the wells and luciferase activity measured on a luminometer Lmax11384 (Molecular Devices). The reporter activation was normalized to the background luminescence divided by protein concentration. Kinetics of reporter activation were measured by adding varied fixed concentrations of an inhibitor at different time points followed by simultaneous cell lysis, protein determination, and luciferase activity measurement in the whole 96-well plate; this assay format minimizes experimental error originating from the well-known instability of luciferase reagent.

primary immature neurons = assay: Astrocyte-dependent neuroprotection in astrocyte-neuron coculture with HCA; type: cell-based, rat; conditions: astrocytes pretreated 24 hr, neurons plated with HCA
astrocytes = assay: Intracellular GSH levels in astrocytes; type: cell-based, rat; conditions: 24 hr; 10 μM NDGA, 24 μM gedunin, 20 μM fisetin
FLAG-Keap1 = target: T1, FLAG-Keap1 (Homo sapiens, UniProt Q14145); type: cell-based
T1 construct: expressed in transfected cells; host or cells: HEK293 (transient expression)
T1 sequence (Q14145 whole entry): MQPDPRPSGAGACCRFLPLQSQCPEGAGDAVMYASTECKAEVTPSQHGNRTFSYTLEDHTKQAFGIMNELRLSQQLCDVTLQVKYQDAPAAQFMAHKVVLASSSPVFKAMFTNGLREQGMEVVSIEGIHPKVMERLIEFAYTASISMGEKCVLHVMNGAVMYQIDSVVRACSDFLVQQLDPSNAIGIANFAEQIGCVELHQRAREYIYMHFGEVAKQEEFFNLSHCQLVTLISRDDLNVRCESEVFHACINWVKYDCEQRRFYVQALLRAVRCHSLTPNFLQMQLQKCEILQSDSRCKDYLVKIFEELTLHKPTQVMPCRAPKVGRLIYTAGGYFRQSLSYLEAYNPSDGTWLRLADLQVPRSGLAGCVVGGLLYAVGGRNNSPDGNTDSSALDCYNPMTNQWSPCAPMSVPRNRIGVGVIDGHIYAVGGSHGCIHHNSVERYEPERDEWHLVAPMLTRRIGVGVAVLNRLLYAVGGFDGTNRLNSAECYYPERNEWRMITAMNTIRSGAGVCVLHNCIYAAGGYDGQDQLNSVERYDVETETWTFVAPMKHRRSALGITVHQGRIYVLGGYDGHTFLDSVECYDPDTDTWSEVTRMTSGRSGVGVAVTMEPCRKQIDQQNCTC
Method: FIG. 12. Supporting to FIG. 5. […] A: structural formulas of the compounds used; B: competition with Keap1 labeling. HEK293 cells transiently expressing FLAG-Keap1 were incubated with 200 μM competing compounds (sulforaphane, fisetin, quercetin, gedunin, TBHQ, ciclopirox, geldanamycin) and then further incubated with 10 μM sulfoxythiocarbate-alkyne (STCA) for 30 min at 37° C. FLAG-Keap1 was immunoprecipitated from cell lysates, subjected to click reaction with biotin azide on beads, and eluted with SDS-loading buffer. […] All values are presented as mean±SEM.
Keap1 labeling experiments were performed as described previously (AHN et al., Proc. Natl. […]. USA., 107: 9590-9595 (2010)) with following modifications. HEK293 cells transiently expressing FLAG-Keap1 were incubated with 200 μM competing compounds (sulforaphane, fisetin, quercetin, gedunin, TBHQ, ciclopirox, geldanamycin) in serum-free DMEM for 1 h. After washing with PBS, cells were further incubated with 10 μM sulfoxythiocarbate-alkyne (STCA) for 30 min at 37° C. FLAG-Keap1 was immunoprecipitated from cell lysates, subjected to click reaction with biotin azide on beads, and eluted with SDS-loading buffer. Eluted samples were immunoblotted with Streptavidin-HRP (Pierce) and anti-FLAG antibodies (Sigma).

Nrf2-Keap1 complex = Nrf2-Keap1 complex (Homo sapiens, UniProt Q14145); assay: cell-based; type: cell-based; conditions: for activation at 16 µM / activation at 32 µM: 3 h; for activation at 16 µM: read-out: Activation 100 nL; for activation at 32 µM: read-out: Activation 200 nL; for 100 nL (luminescence): 100 nL compound; for 100 nL (luminescence) / 200 nL (luminescence): screen run at 16 and 32 μM, 3 hr; for 200 nL (luminescence): 200 nL compound
Sequence of Nrf2-Keap1 complex (Q14145 whole entry, one chain of several): as the sequence (Q14145 whole entry) above

[2] = 200 μM competing compound, HEK293 cells, then 10 μM STCA 30 min

Compound	activation at 16 µM (Nrf2-Keap1 complex) [%]	activation at 32 µM (Nrf2-Keap1 complex) [%]	100 nL (luminescence) (Nrf2-Keap1 complex; Table 2)	200 nL (luminescence) (Nrf2-Keap1 complex; Table 2)	other results
Nc1ccccc1N [oPD, ortho-phenylene diamine]	–	–	–	–	lag-period of reporter activation [1]: 40 to 50 min
Oc1ccccc1O [catechol, o-catechol]	–	–	–	–	lag-period of reporter activation [1]: 20 min
CC(Cc1ccc(O)c(O)c1)C(C)Cc1ccc(O)c(O)c1 (stereo not drawn) [NDGA, nordihydroguaiaretic acid]	–	–	–	–	toxicity in isolated neurons (Immature neurons): did not induce toxicity in isolated neurons; type of reporter activation by time-course [1]: activation via a switch or receptor; astrocyte-dependent neuroprotection (primary immature neurons): induced significant neuroprotection; GSH in astrocytes (astrocytes): clearly show a boost in GSH; competition with Keap1 labeling by STCA (FLAG-Keap1; [2]): poorly compete with Keap1 labeling
O=c1c(O)c(-c2ccc(O)c(O)c2)oc2cc(O)cc(O)c12 [quercetin, 3,5,7,3′,4′-pentahydroxyflavone]	–	–	–	–	type of reporter activation by time-course [1]: immediate activation but gradual stabilization over time; competition with Keap1 labeling by STCA (FLAG-Keap1; [2]): very modest competition
Cc1cc(C2CCCCC2)n(O)c(=O)c1 [ciclopirox, reference compound]	–	–	–	–	competition with Keap1 labeling by STCA (FLAG-Keap1; [2]): no competition with Keap1 labeling
C[S+]([O-])CCCCN=C=S (stereo not drawn) [sulforaphane, reference compound]	–	–	–	–	type of reporter activation by time-course [1]: immediate activation but gradual stabilization over time; competition with Keap1 labeling by STCA (FLAG-Keap1): decent competition; also recorded: inhibits Keap1 labeling completely
COC1=C2C[C@@H](C)C[C@H](OC)[C@H](O)[C@@H](C)/C=C(\C)[C@H](OC(N)=O)[C@@H](OC)/C=C\C=C(/C)C(=O)NC(=CC1=O)C2=O [geldanamycin, reference compound]	–	–	–	–	activation effect ([1]; in the range of 0.5-1.5 μM): 2-3 fold
CCOP(=S)(OCC)Oc1nc(Cl)c(Cl)cc1Cl [CHLORPYRIFOS]	90	55	1572	1704	–
O=C1CC(c2ccc(O)cc2)Oc2ccccc21 (stereo not drawn) [4′-HYDROXYFLAVANONE]	158	75	1752	2088	–
COc1ccc2cc1Oc1ccc(cc1)C[C@H]1c3cc(c(OC)cc3CCN1C)Oc1c(OC)c(OC)cc3c1[C@H](C2)N(C)CC3 [TETRANDRINE]	85	18	–	–	100 nL (luminescence) (Nrf2-Keap1 complex; Table 1A): 1660; 200 nL (luminescence) (Nrf2-Keap1 complex; Table 1A): 596
COc1ccc2c(c1)OC/C(=C\c1ccc(OC)c(O)c1)C2=O [SAPPANONEADIMETHYLETHER]	377	110	6124	2008	–
COc1ccc2ccc(=O)oc2c1CC=C(C)C [OSTHOL]	–	–	1136	1634	Activation 100 nL (Nrf2-Keap1 complex): 58%; Activation 200 nL (Nrf2-Keap1 complex): 52%
O=C(/C=C/C(=O)Oc1ccccc1C(=O)O)Oc1ccccc1C(=O)O [BISSALICYLFUMARATE]	338	156	–	–	–
CCCCC1C(=O)N(c2ccccc2)N(c2ccc(O)cc2)C1=O (stereo not drawn) [OXYPHENBUTAZONE, reference compound]	–	–	1760	3084	Activation 100 nL (Nrf2-Keap1 complex): 113%; Activation 200 nL (Nrf2-Keap1 complex): 131%
COC(=O)C1=C(C)NC(C)=C(C(=O)OC)C1c1ccccc1[N+](=O)[O-] [NIFEDIPINE, reference compound]	35	-10	–	–	–
C=C1C2=CC(=O)O[C@@H](c3ccoc3)[C@]2(C)CC[C@@H]1[C@@]1(C)C=CC(=O)C(C)(C)[C@@H]1CC(=O)OC [DEOXYANDIROBIN]	95	106	1816	1944	–
